Read-outs that look alike come from different tables or passages of the source. Where a SMILES comes first, the peptide text is derived from it.
Key:
[1] = tested on: human iPSC-CM (iCell Cardiomyocytes); test: Dose-response cell viability (CellTiter-Fluor) in iPSC-derived cardiomyocytes, maximum acceptable viability exposure; type: cell-based
Protocol: Metabolomic data was acquired to identify non-cytotoxic exposure levels and identify biomarkers of cardiotoxicity from a dose-response experiment using spent medium of iPSC-CM treated with 53 of the compounds in the training set. Briefly, human iPSC-CM (iCell® Cardiomyocytes, cat #R1007, Cellular Dynamics International) were exposed to eight concentrations of each training set compound. Spent media was collected for LC-MS analysis and cell viability was assessed with the CellTiter-Fluor Cell Viability Assay (Promega). Spent media samples were prepared and analyzed using the methods developed in Specific Aim 1. The spent media samples from iPSC-CM treated with 10 representative cardiotoxic and non-cardiotoxic compounds were analyzed with all four LC-MS methods to rank biological significant secretome features by predictive capacity. […]
The goal of the concentration-response phase of biomarker identification was to identify non-cytotoxic exposure levels that change iPSC-CM metabolism. The method included modeling feature response, calculating maximum acceptable viability (MAVE), determining response at Cmax, and MAVE, reviewing the top 4 responding features, and selecting the highest tested exposure with 90% viability.

[2] = cited from earlier work
[3] = highest exposure tested with ≥90% viability, iPSC-CM, eight concentrations

| Molecule | MAVE (Maximum Acceptable Viability Exposure) ([1]; human) [µM] | Cmax Total ([2]; therapeutic total Cmax) [nM] | MAVE (Maximum Acceptable Viability Exposure) [1, 3] [µM] | Cmax Total ([2]; in vivo) [nM] |
| --- | --- | --- | --- | --- |
| CS(=O)(=O)c1ccc(C2=C(c3ccccc3)C(=O)OC2)cc1 [Rofecoxib] | 100 | 1700 | – | – |
| CCCCCCc1ccc(O)cc1O [Hexylresorcinol] | 30 | 1000 | – | – |
| O=C1NCCN1CCN1CCC(c2cn(-c3ccc(F)cc3)c3ccc(Cl)cc23)CC1 [Sertindole] | 0.3 | 320 | – | – |
| O=C1CN2Cc3c(ccc(Cl)c3Cl)N=C2N1 [Anagrelide] | 30 | 60 | – | – |
| COc1cc(N)c(Cl)cc1C(=O)NC1CCN(CCCOc2ccc(F)cc2)CC1OC (stereo not drawn) [Cisapride] | 100 | 180 | – | – |
| COc1cc2c(Nc3ccc(Br)cc3F)ncnc2cc1OCC1CCN(C)CC1 [Vandetanib] | 1 | 3300 | – | – |
| CCCN1C[C@H](CSC)C[C@@H]2c3cccc4[nH]cc(c34)C[C@H]21 [Pergolide] | 30 | 3 | – | – |
| C#Cc1cccc(Nc2ncnc3cc(OCCOC)c(OCCOC)cc23)c1 [Erlotinib] | 3 | 3800 | – | – |
| CSc1ccc2c(c1)N(CCC1CCCCN1C)c1ccccc1S2 (stereo not drawn) [Thioridazine] | 1 | – | – | – |
| Cc1ccc(NC(=O)c2ccc(CN3CCN(C)CC3)cc2)cc1Nc1nccc(-c2cccnc2)n1 [Imatinib] | 3 | – | – | – |
| O=c1[nH]cc(F)c(=O)[nH]1 [Fluorouracil] | 100 | 4600 | – | – |
| CCCCCNC(=N)N/N=C/c1c[nH]c2ccc(OC)cc12 [Tegaserod] | 3 | 80 | – | – |
| O=C(O)CCCC[C@@H]1SC[C@@H]2NC(=O)N[C@@H]21 [Biotin] | 100 | 10 | – | – |
| CNC(=O)c1cc(Oc2ccc(NC(=O)Nc3ccc(Cl)c(C(F)(F)F)c3)cc2)ccn1 [Sorafenib] | 3 | – | – | – |
| CC1(C)S[C@@H]2[C@H](NC(=O)[C@H](N)c3ccc(O)cc3)C(=O)N2[C@H]1C(=O)O [Amoxicillin] | 100 | 17000 | – | – |
| CC(C)C[C@H](N)C(=O)O [Leucine] | 100 | – | – | – |
| CN(C)CCN(Cc1cccs1)c1ccccn1 [Methapyrilene] | 100 | 15300 | – | – |
| O=C1c2c(O)ccc(O)c2C(=O)c2c(NCCNCCO)ccc(NCCNCCO)c21 [Mitoxantrone] | 1 | – | – | – |
| C[C@@H]1[C@H](O)[C@@H](C)/C=C/C=C/C=C/C=C/C=C/C=C/C=C/[C@H](O[C@@H]2O[C@H](C)[C@@H](O)[C@H](N)[C@@H]2O)C[C@@H]2O[C@](O)(C[C@@H](O)C[C@@H](O)[C@H](O)CC[C@@H](O)C[C@@H](O)CC(=O)O[C@H]1C)C[C@H](O)[C@H]2C(=O)O [Amphotericin B] | – | 89800 | 3 | – |
| COc1cccc2c1C(=O)c1c(O)c3c(c(O)c1C2=O)C[C@@](O)(C(=O)CO)C[C@@H]3O[C@H]1C[C@H](N)[C@H](O)[C@H](C)O1 [Doxorubicin] | 0.1 | 15300 | – | – |
| Arsenic Trioxide | – | 12100 | 10 | – |
| CN(C)CCC=C1c2ccccc2CCc2ccccc21 [Amitriptyline] | 1 | 950 | – | – |
| COc1ccc(C(=O)Nc2ccccc2CCC2CCCCN2C)cc1 (stereo not drawn) [Encainide] | 100 | 710 | – | – |
| COC(=O)c1ccc(O)cc1 [Methylparaben] | 100 | 230 | – | – |
| CC(C)(C)c1ccc(C(O)CCCN2CCC(C(O)(c3ccccc3)c3ccccc3)CC2)cc1 (stereo not drawn) [Terfenadine] | 3 | 300 | – | – |

| Molecule | MAVE (Maximum Acceptable Viability Exposure) ([1]; human) [µM] | Cmax Total ([2]; therapeutic total Cmax) [nM] | MAVE (Maximum Acceptable Viability Exposure) [1, 3] [µM] | Cmax Total ([2]; in vivo) [nM] |
| --- | --- | --- | --- | --- |
| CCN(CC)CCNC(=O)c1c(C)[nH]c(/C=C2\C(=O)Nc3ccc(F)cc32)c1C [Sunitinib] | 1 | 250 | – | – |
| Phenylphenol | – | 90 | 100 | – |
| CN1CCN(C2=Nc3cc(Cl)ccc3Nc3ccccc32)CC1 [Clozapine] | 10 | 950 | – | – |
| O=C(O)c1ccccc1 [Benzoic Acid] | 100 | 36000 | – | – |
| CNC(=C[N+](=O)[O-])NCCSCc1ccc(CN(C)C)o1 [Ranitidine] | 100 | 1700 | – | – |
| OC[C@@H](O)[C@@H](O)[C@H](O)[C@@H](O)CO [Sorbitol] | 100 | 3900 | – | – |
| Cc1occc(=O)c1O [Maltol] | 100 | 30000 | – | – |
| COc1cccc2c1C(=O)c1c(O)c3c(c(O)c1C2=O)C[C@@](O)(C(C)=O)C[C@@H]3O[C@H]1C[C@H](N)[C@H](O)[C@H](C)O1 [Daunorubicin] | 0.1 | 89000 | – | – |
| CCN[C@@H](C)Cc1cccc(C(F)(F)F)c1 [Dexfenfluramine] | 30 | – | – | 400 |
| CC(=O)[C@]1(O)Cc2c(O)c3c(c(O)c2[C@@H](O[C@H]2C[C@H](N)[C@H](O)[C@H](C)O2)C1)C(=O)c1ccccc1C3=O [Idarubicin] | 0.1 | 120 | – | – |
| CCN(CC)CCCC(C)Nc1ccnc2cc(Cl)ccc12 (stereo not drawn) [Chloroquine] | 3 | 960 | – | – |
| Cc1onc(-c2ccccc2)c1-c1ccc(S(N)(=O)=O)cc1 [Valdecoxib] | 100 | 510 | – | – |
| CC(=O)O[C@H]1C(=O)[C@@]2(C)[C@H]([C@H](OC(=O)c3ccccc3)[C@]3(O)C[C@H](OC(=O)[C@H](O)[C@@H](NC(=O)c4ccccc4)c4ccccc4)C(C)=C1C3(C)C)[C@]1(OC(C)=O)CO[C@@H]1C[C@@H]2O [Paclitaxel] | 0.03 | – | – | – |
| CC(C)C[C@H](NC(=O)[C@H](Cc1ccccc1)NC(=O)c1cnccn1)B(O)O [Bortezomib] | 0.1 | 300 | – | – |
| C[C@@H]1C/C=C/C=C/C=C/C=C/[C@H](O[C@@H]2O[C@H](C)[C@@H](O)[C@H](N)[C@@H]2O)C[C@@H]2O[C@](O)(C[C@@H](O)C[C@H]3O[C@@H]3/C=C/C(=O)O1)C[C@H](O)[C@H]2C(=O)O [Natamycin] | 30 | – | – | – |
| COC(=O)[C@H](Cc1ccccc1)NC(=O)[C@@H](N)CC(=O)O [Aspartame] (H-Asp-Phe-OMe) | 100 | 1000 | – | – |
| c1ccc2[nH]c(-c3cscn3)nc2c1 [Thiabendazole] | 100 | 30800 | – | – |
| CC(C)NCC(O)c1ccc(O)c(O)c1 (stereo not drawn) [Isoproterenol] | 100 | 10 | – | – |
| CN(CCOc1ccc(NS(C)(=O)=O)cc1)CCc1ccc(NS(C)(=O)=O)cc1 [Dofetilide] | 100 | 8 | – | – |
| O=C1O[C@H]([C@@H](O)CO)C(O)=C1O [Ascorbic Acid] | 100 | 36000 | – | – |
| CCCOC(=O)c1cc(O)c(O)c(O)c1 [Propyl Gallate] | 30 | 3000 | – | – |
| O=C(O)C(O)C(O)C(=O)O (stereo not drawn) [Tartaric Acid] | 100 | – | – | – |
| O=C(O)CC(O)(CC(=O)O)C(=O)O [Citric Acid] | 100 | 128000 | – | – |
| CCN1/C(=C/C=C/C=C/c2sc3ccccc3[n+]2CC)Sc2ccccc21 [Dithiazanine Iodide] | 0.1 | 100 | – | – |
